Measurements from PubChem BioAssay AID1963834 (Molecular Pharmacology Branch, DTP, NCI, 2024).

Test system: 873145-292-R-J1-PDC complex spheroid viability
Test: Anticancer human tumor 873145-292-R-J1-PDC patient-derived renal clear cell carcinoma cell line growth inhibition [POLQ]
Settings: for IC50: curve of first compound; for viability, T/C: stronger effect = lower value; active = viability on the fitted dose curve at most 10% of control; inactive = the rest
Summary of the method: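 Three-cell-type spheroids modelling solid tumor plus stroma served as the readout system; POL inhibitors were tested individually and in combination, concentration ranges set by clinical Cmax where known.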

[1] = second compound 0.0316 µM, first compound 0.0316 µM
[2] = second compound 0.0316 µM, first compound 0.1 µM
[3] = second compound 0.0316 µM, first compound 0.316 µM
[4] = second compound 0.0316 µM, first compound 1 µM
[5] = second compound 0.0316 µM, first compound 3.16 µM
[6] = second compound 0.0316 µM, first compound 10 µM
[7] = second compound 0.1 µM, first compound 0.0316 µM
[8] = second compound 0.1 µM, first compound 0.1 µM
[9] = second compound 0.1 µM, first compound 0.316 µM
[10] = second compound 0.1 µM, first compound 1 µM
[11] = second compound 0.1 µM, first compound 3.16 µM
[12] = second compound 0.1 µM, first compound 10 µM
[13] = second compound 0.316 µM, first compound 0.0316 µM
[14] = second compound 0.316 µM, first compound 0.1 µM
[15] = second compound 0.316 µM, first compound 0.316 µM
[16] = second compound 0.316 µM, first compound 1 µM
[17] = second compound 0.316 µM, first compound 3.16 µM
[18] = second compound 0.316 µM, first compound 10 µM
[19] = second compound 1 µM, first compound 0.0316 µM
[20] = second compound 1 µM, first compound 0.1 µM
[21] = second compound 1 µM, first compound 0.316 µM
[22] = second compound 1 µM, first compound 1 µM
[23] = second compound 1 µM, first compound 3.16 µM
[24] = second compound 1 µM, first compound 10 µM
[25] = second compound 3.16 µM, first compound 0.0316 µM
[26] = second compound 3.16 µM, first compound 0.1 µM
[27] = second compound 3.16 µM, first compound 0.316 µM
[28] = second compound 3.16 µM, first compound 1 µM
[29] = second compound 3.16 µM, first compound 3.16 µM
[30] = second compound 3.16 µM, first compound 10 µM
[31] = second compound 10 µM, first compound 0.0316 µM
[32] = second compound 10 µM, first compound 0.1 µM
[33] = second compound 10 µM, first compound 0.316 µM
[34] = second compound 10 µM, first compound 1 µM
[35] = second compound 10 µM, first compound 3.16 µM
[36] = second compound 10 µM, first compound 10 µM
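Note: spheroids exposed to compounds for 7 days before viability readout.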
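Throughout, for viability, T/C: luminescence signal used as surrogate for viable cell content; 100% = DMSO vehicle control viability.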

C#Cc1c(F)ccc2cc(O)cc(-c3ncc4c(N5CC6CCC(C5)N6)nc(OCC56CCCN5CC(F)C6)nc4c3F)c12 (stereo unspecified) + Cc1cccc(N(C)C(=O)C2C(O)CCN2c2nc(C)cc(C(F)(F)F)c2C#N)c1
inactive: viability, T/C [1] 94.5% | viability, T/C [2] 112% | viability, T/C [3] 88% | viability, T/C [4] 91% | viability, T/C [5] 98% | viability, T/C [6] 88.8% | viability, T/C [7] 103% | viability, T/C [8] 97.4% | viability, T/C [9] 89.5% | viability, T/C [10] 89% | viability, T/C [11] 102% | viability, T/C [12] 92.1% | viability, T/C [13] 96% | viability, T/C [14] 94.6% | viability, T/C [15] 107% | viability, T/C [16] 92.1% | viability, T/C [17] 87.3% | viability, T/C [18] 90.7% | viability, T/C [19] 99.8% | viability, T/C [20] 89.2% | viability, T/C [21] 91.2% | viability, T/C [22] 93.7% | viability, T/C [23] 95.1% | viability, T/C [24] 88.8% | viability, T/C [25] 87.1% | viability, T/C [26] 84.5% | viability, T/C [27] 89.6% | viability, T/C [28] 95.9% | viability, T/C [29] 85.1% | viability, T/C [30] 89.6% | viability, T/C [31] 86.5% | viability, T/C [32] 95.8% | viability, T/C [33] 95.8% | viability, T/C [34] 94.4% | viability, T/C [35] 82.5% | viability, T/C [36] 86.9%
> 10 µM: IC50 (second compound 0.0316 µM) | IC50 (second compound 0.1 µM) | IC50 (second compound 0.316 µM) | IC50 (second compound 1 µM) | IC50 (second compound 3.16 µM) | IC50 (second compound 10 µM)

C=CC(=O)N1CCN(c2nc(=O)n(-c3c(C)ccnc3C(C)C)c3nc(-c4c(O)cccc4F)c(F)cc23)C(C)C1 (stereo unspecified) + Cc1cccc(N(C)C(=O)C2C(O)CCN2c2nc(C)cc(C(F)(F)F)c2C#N)c1
inactive: viability, T/C [1] 103% | viability, T/C [2] 108% | viability, T/C [3] 107% | viability, T/C [4] 120% | viability, T/C [5] 141% | viability, T/C [6] 138% | viability, T/C [7] 104% | viability, T/C [8] 110% | viability, T/C [9] 115% | viability, T/C [10] 133% | viability, T/C [11] 128% | viability, T/C [12] 126% | viability, T/C [13] 108% | viability, T/C [14] 111% | viability, T/C [15] 119% | viability, T/C [16] 123% | viability, T/C [17] 143% | viability, T/C [18] 125% | viability, T/C [19] 114% | viability, T/C [20] 100% | viability, T/C [21] 111% | viability, T/C [22] 123% | viability, T/C [23] 144% | viability, T/C [24] 117% | viability, T/C [25] 105% | viability, T/C [26] 110% | viability, T/C [27] 106% | viability, T/C [28] 111% | viability, T/C [29] 136% | viability, T/C [30] 124% | viability, T/C [31] 110% | viability, T/C [32] 101% | viability, T/C [33] 103% | viability, T/C [34] 111% | viability, T/C [35] 120% | viability, T/C [36] 128%
> 10 µM: IC50 (second compound 0.0316 µM) | IC50 (second compound 0.1 µM) | IC50 (second compound 0.316 µM) | IC50 (second compound 1 µM) | IC50 (second compound 3.16 µM) | IC50 (second compound 10 µM)

CC1COCCN1c1cc(C2(O)CC3CCC(C2)O3)c2cnn(-c3ccn[nH]3)c2n1 (stereo unspecified) + Cc1cccc(N(C)C(=O)C2C(O)CCN2c2nc(C)cc(C(F)(F)F)c2C#N)c1
0.61 µM: IC50 (second compound 0.1 µM)
0.378 µM: IC50 (second compound 3.16 µM)
0.478 µM: IC50 (second compound 0.0316 µM)
inactive: viability, T/C [1] 84.4% | viability, T/C [2] 67.5% | viability, T/C [3] 54% | viability, T/C [4] 44.3% | viability, T/C [5] 37.2% | viability, T/C [6] 38% | viability, T/C [7] 93.5% | viability, T/C [8] 76.4% | viability, T/C [9] 57.1% | viability, T/C [10] 43.2% | viability, T/C [11] 39.5% | viability, T/C [12] 32% | viability, T/C [13] 94.5% | viability, T/C [14] 82.5% | viability, T/C [15] 52.5% | viability, T/C [16] 40.4% | viability, T/C [17] 40.3% | viability, T/C [18] 35.9% | viability, T/C [19] 84.8% | viability, T/C [20] 71.6% | viability, T/C [21] 54% | viability, T/C [22] 44.1% | viability, T/C [23] 42.1% | viability, T/C [24] 39.8% | viability, T/C [25] 90.1% | viability, T/C [26] 63.1% | viability, T/C [27] 55.6% | viability, T/C [28] 41.3% | viability, T/C [29] 36.6% | viability, T/C [30] 35.6% | viability, T/C [31] 86.2% | viability, T/C [32] 68.8% | viability, T/C [33] 49% | viability, T/C [34] 38.4% | viability, T/C [35] 39.5% | viability, T/C [36] 32%
0.511 µM: IC50 (second compound 1 µM)
0.306 µM: IC50 (second compound 10 µM)
0.405 µM: IC50 (second compound 0.316 µM)
